One molecule from patent US20090123518A1, “Biodegradable implants with controlled bulk density” (priority 2007, published 2009) can be followed below.

This series in a line: Osmotic pressure of the drug in water. In kind it is physicochemical. Conditions: in water at room temperature. From the text:
As an example of this discovery, the inventors selected leuprolide acetate as a sample compound. The inventors then experimentally determined that the osmotic pressure of leuprolide acetate in water is approximately 5 atmospheres at room temperature.
“Osmotic pressure of the drug” means the pressure that must be applied to a solution to prevent the net flow of solvent molecules (such as water) through a semipermeable membrane from a solution of lower drug concentration to a solution of higher drug concentration. The osmotic pressure of the drug can be experimentally determined with use of a vapor pressure osmometer, such as the Vapro® vapor pressure osmometer.

With `CCNC(=O)[C@@H]1CCCN1C(=O)[C@H](CCCNC(=N)N)NC(=O)[C@H](CC(C)C)NC(=O)[C@@H](CC(C)C)NC(=O)[C@H](Cc1ccc(O)cc1)NC(=O)[C@H](CO)NC(=O)[C@H](Cc1c[nH]c2ccccc12)NC(=O)[C@H](Cc1c[nH]cn1)NC(=O)[C@@H]1CCC(=O)N1` [leuprolide acetate], the osmotic pressure entry is recorded as “approximately 5 atmospheres”.
